Residues, ends and D or L forms follow the SMILES beside them. *: point of attachment. Boc = CC(C)(C)OC(=O)*
Compound	melting point [°C]
COC(=O)c1ccc(/C=C/C(=O)NOC2CCCCO2)s1 (centres undefined)	177
CCCc1nc2c(N)nc3cccnc3c2n1CCCCN(OC)C(=O)c1ccccc1	125 to 127
COc1cccc(Sc2ccc3c(c2)CC[C@H]2NC(=O)CC[C@]32C)c1	154 to 156
COC(=O)c1cccc(Oc2ccc(NC(=O)c3ccc([N+](=O)[O-])cc3Br)cc2NC(=O)c2ccc([N+](=O)[O-])cc2Br)c1C(=O)OC	138 to 142
CC(C)(C)OC(=O)NC(Cc1ccccc1)CC(O)C(Cc1ccccc1)NC(=O)OCc1cncs1 (centres undefined)	118 to 120
CCN(c1cccc2cc(C(N)=S)[nH]c12)S(=O)(=O)c1cccs1	163
C[C@H]1COc2c(N3CC(C)(N)C4(CC4)C3)c(F)cc3c(=O)c(C(=O)O)cn1c23 (some centres undefined)	268 to 270
O=C1CCC(N2Cc3cc(CNC(=O)Nc4ccccc4)ccc3C2=O)C(=O)N1 (centres undefined)	243 to 245
CCC1CC(=O)Nc2c1cnn2CC (centres undefined)	203 to 204
O=C(O)Cc1ccc(CCN2CCNCC2)cc1	238 to 239
CC(C)(C)OC(=O)NC1CCN(CC23CC(c4ccccc42)c2ccc(Cl)cc23)CC1 (centres undefined)	76.5 to 80
CCN(CC)CC1(C(F)(F)F)c2cc(Cl)ccc2Nc2ncccc21 (centres undefined)	115 to 117
O=C1c2ccccc2-c2ccc(F)cc21	113 to 115
CCOC(=O)[C@H]1O[C@@H]1C(=O)N[C@H](COCC(C)C)C(C)C	40.5 to 45
CC(=O)Oc1c(C(C)(C)C)cc2oc(C=O)cc2c1C(C)(C)C	160
CC1COc2c(N3CC(N)C(C(F)F)C3)c(F)cc3c(=O)c(C(=O)O)cn1c23 (centres undefined)	247 to 252
c1ccc(-c2cc3ccccc3n2-c2ccccc2)cc1	78 to 80
O=[N+]([O-])c1ccccc1Oc1ccc(Cl)cc1Cl	54 to 55
CC(=O)Nc1ccc2c(c1)[nH]c(=O)c(=O)n2CP(=O)(O)O	120
COc1ccc(I)c(CC(=O)N(C)C)c1	86 to 89
O=c1[nH]c(COc2ccccc2)nc2nccnc12	220 to 221
CC1(O)CCC(CN2CCC(=C3c4ccc(F)cc4Sc4ccc(C(F)(F)F)cc43)CC2)CC1 (centres undefined)	80 to 90
OC1CCCCC1n1ccnc1 (centres undefined)	127 to 131
Nc1ccc(F)c2c1C(=O)c1ccccc1-2	205 to 206
COc1nc(C)cc(C(=O)NS(=O)(=O)c2ccccc2[N+](=O)[O-])n1	212 to 216

Compound	melting point [°C]
COc1cccc2c1CC(N(CCCc1c[nH]c3ccc(F)cc13)CC1CCC1)CO2 (centres undefined)	115
CCCCCCOc1ccc(-c2ncc(Br)cn2)cn1	103 to 106
Cn1nc2c(-c3ccc(Cl)cc3Cl)cccc2c1C=CC#N	258 to 259
Cc1ncc2c(c1O)COC2S(C)(=O)=O (centres undefined)	205 to 206
CCCCN1CC(c2ccccc2)=C(O)C1=O	137 to 139
O=C(CC1CCCCC1)c1c(O)c2cccnc2n(-c2ccccc2)c1=O	231 to 233
CCC(C)(C)c1cc(C(C)(C)CC)c2c(c1)C1(O)C(=O)c3ccccc3C1(O)O2 (centres undefined)	195 to 222
CCOC(=O)c1cn(C)c2nc3c(F)c(N4CCNC(c5ccccc5)C4)c(F)cc3cc2c1=O (racemic)	216
Cc1ccc(-c2[nH]c(-c3ccc([N+](=O)[O-])cc3)nc2C(=O)Nc2nccs2)cc1	256 to 258
CC(C)(C)OC(=O)NCCc1ccnc(C#N)c1	70.5 to 71.2
Oc1cnccc1CCCOc1cccnc1Oc1cc(Cl)cc(Cl)c1	99 to 101
CC(C)c1cn2ccccc2c1S(=O)(=O)c1ccc(OCCCN2CCN(c3ccccc3)CC2)cc1	135 to 136
CC(=O)NC1(c2ccc(C(C)=O)cc2)CC1	128 to 131
CC(=O)SCCN(CCc1ccccc1)C(=O)N[C@@H](Cc1ccc([N+](=O)[O-])cc1)C(=O)NCCC(=O)O	114 to 118
COc1c2c(cc3ccccc13)CCC(C(=O)O)C2 (centres undefined)	192
CC(C)NC(=O)C1=C(C(=O)Nc2ccc(Cl)cc2F)CCCC1	188 to 189
CCC(=O)c1[nH]c(=O)[nH]c1C	270 to 271
CCCC(=O)Nc1c(C)c(C)c2c(c1C)C(c1ccc(C(C)C)cc1)C(C)(C)O2 (centres undefined)	120 to 122
CC(C)(C)OC(=O)N1CCCC1C(=O)NC(Cc1ccccc1)C(=O)NCC(=O)O (stereo not drawn) (Boc-Pro-Phe-Gly-OH; configuration not given here)	98 to 100
CC1(C)CS(=O)(=O)c2sc(S(N)(=O)=O)cc2C1O (centres undefined)	172 to 174
CCC(O)c1cc(C2(c3cccc(-c4cccnc4F)c3)N=C(N)N(C)C2=O)cn1CC (centres undefined)	115 to 121
CN1CCC(c2c[nH]c3ccc(C(=O)c4ccccc4)cc23)CC1	101
CCNC(=S)N(CC)c1ccc(Cl)nc1	84 to 86
COC(=O)c1ccc(CCC(O)CCc2ccc(C(=O)OC)cc2)cc1	129 to 130
O=C1Oc2ccc(Cl)cc2C2=c3ccccc3=NCC12 (centres undefined)	> 350

Compound	melting point [°C]
CCN1C(=O)C(C)(C)C(=O)N(C)c2cc(C(=O)O)ccc21	296 to 299
Cc1n[nH]c2cc(-c3nn(C(C)c4oc5ccc(F)cc5c(=O)c4-c4cccc(F)c4)c4ncnc(N)c34)ccc12 (centres undefined)	234 to 236
COCCc1nc2c(N)nc3c(c2n1CCOCCNC(=O)Nc1ccccc1)CCCC3	180 to 182
CN1CCC(=C2c3cc(Br)ccc3C=Cn3cccc32)CC1	138 to 142
CNc1cc(Oc2ccc(NC(=O)Nc3ccc(C(C)(C)C)cc3)cc2)ncn1	245 to 246
CNC(=O)NC1CC(N)(C(=O)O)C2C(C(=O)O)C12 (centres undefined)	> 275
CCCNc1ccc(NCc2ccc(NCCC)nc2)nc1	129 to 130
CC(=O)Nc1ccc2c(c1)Cc1cc(=O)[nH]nc1-2	> 300
COc1cc(Cl)cnc1N	93 to 94
CC(=O)NC(C)Cc1ccc(CCC(=O)O)cc1 (centres undefined)	93 to 96
Cc1nc2sccn2c(=O)c1CCN1CCC(n2ccc3ccccc32)CC1	134
CCCCNC(=O)NS(=O)(=O)c1cccc2c1OC(C)(C)C2	200 to 203
CC(C)(NC(=O)CCNC(=O)c1ccccc1)c1ccccc1	147 to 148
N#Cc1cnc2sc(C#Cc3ccncc3)cc2c1Nc1ccc2[nH]ccc2c1	> 250
CC(=O)OC/C(=C(\C(=O)N(C)CC(C)(C)SN=O)c1ccc(F)cc1)c1ccc(S(C)(=O)=O)cc1	37 to 38
C=C(COC(=O)Oc1ccc([N+](=O)[O-])cc1)C(=O)OCC	42 to 43
COC(=O)c1cc(-c2cccc(C(F)(F)F)c2)ns1	82 to 83
Cc1ccc2nc(-c3cccc(Cl)c3)oc(=O)c2c1	160 to 162
Cc1cc(Oc2ncc(Cl)cc2Cl)cc(C)c1N=C=NC(C)(C)C	69 to 71
O=c1[nH]c2ccccc2n1OCc1ccccc1	92 to 95
CCOC(=O)c1cc2c3ccccc3[nH]c(=O)n2n1	242 to 244
O=C(Cn1cnc2ccccc21)Nc1ccc(-n2nc(C(F)(F)F)cc2C2CC2)cc1	178 to 184
O=C(O)CCC1(CCC(=O)O)CCCCC(CCC(=O)O)(CCC(=O)O)C1=O	230 to 232
Fc1cc2c(Nc3ccc(Cl)c(Cl)c3)ncnc2cn1	262 to 264
CN(C)C(=O)COC[C@@H]1CC(c2ccc(-c3ccc(N4C[C@H](Cn5ccnn5)OC4=O)cc3F)cn2)=NO1	166 to 168

Compound	melting point [°C]
O=[N+]([O-])C=Cc1cc(Br)ccc1O	165 to 167
O=S(=O)(c1ccc(F)cc1)C(F)(F)C(F)(F)C(F)(F)C(F)(F)S(=O)(=O)c1ccc(F)cc1	126 to 127
CCCCCCCCCCCC(=O)OC[C@H]1OCC(=NO)[C@@H](O)[C@@H]1O	90 to 101
O=C(NC1CCCC1)N1CCc2[nH]cnc2C1	225
Cc1nc(-c2ccccc2)sc1CNC(=O)c1ccnc(N2CCN(Cc3ccc(F)cc3)C2=O)c1	182 to 184
O=C(Nc1ccc(Cl)cc1)c1cccc(Cl)c1	124 to 126
CC(C)(C)c1ccc2c(c1)ncn2-c1cccc(Br)n1	98 to 100
CCC(C)NC(=O)c1nc2cnn(CC)c2nc1-c1ccccc1 (centres undefined)	150 to 151
O=C(NCc1ccc(Cl)cc1)c1cn2c(CSc3ccccc3)cc3cc(CN4CCOCC4)cc(c1=O)c32	173 to 175
CC(=O)N1CC(CCN2CC=C(c3ccc(Cl)cc3)CC2)c2ccccc21 (centres undefined)	116 to 118
OC(Cc1ccc(Cl)cc1)(Cn1ccnc1)c1ccc2c(c1)Cc1cc(Cl)ccc1-2 (centres undefined)	218
CCOC(=O)C1=C(CN2C(=O)c3ccccc3C2=O)NC(CN2C(=O)c3ccccc3C2=O)=C(C(=O)OCC)C1c1ccccc1Cl	162 to 164
N#Cc1ccc(-n2c(=O)oc3ccc(-c4ccc(F)cc4F)cc3c2=O)cc1	203 to 204
Cc1ccc(N2C(=O)NC(=O)C23CCN(C)CC3)cc1	172 to 174
COc1ccccc1C(=O)N(C)Cc1cccc(-c2ccc(CC3SC(=O)NC3=O)cc2)c1 (centres undefined)	96
NS(=O)(=O)c1ccc(-c2cc(-c3nc(-c4ccc(Cl)c(Cl)c4)cc(C(F)(F)F)n3)ccn2)s1	266
CC(=O)Nc1nc(CCc2ccc(NC(=N)N)cc2)c(Cc2ccc(S(C)(=O)=O)cc2)s1	228 to 230
O=c1c2cc(F)c(F)cc2[nH]c2c1cnn2-c1ccccn1	> 300
CNC(=O)c1ccccc1Nc1nc(Nc2ccc3c(c2)N(C)CCN(S(C)(=O)=O)C3)ncc1Cl	200 to 207
Nc1ccc(-c2nccc3[nH]c(=O)ccc23)cc1	309 to 312
CCOC(=O)c1cn(CCO)c2cc(-n3cccc3)c(F)cc2c1=O	237 to 239
COC1=C(OC)C(=O)C(CCCCC[C@H]2CC[C@H](OC(C)=O)CC2)=C(C)C1=O	33 to 34
c1cc(-c2cnn3cc(-c4ccc(OCCN5CCOCC5)cc4)cnc23)cs1	149 to 151
CCOc1cccc(-c2cc3n(n2)CCc2ccccc2-3)c1	103 to 104

From a melting point compilation (Tetko et al.; mined from patent text by program, amines drawn as free bases though some values may be those of a salt)
